Assay results published in patent US8575342B2, “HIV inhibiting 5-heterocyclyl pyrimidines” (Tibotech Pharmaceuticals Ltd., priority 2004, dated 2013).
Read-outs that look alike come from different tables or passages of the source.

Key:
[1] = system: HIV strain D, mutation Y188L in HIV reverse transcriptase; assay: cellular antiviral assay, strain D; format: cell-based; conditions: for pEC50 D: strain D, Y188L; for EC50: Human immunodeficiency virus 1, read-out: pEC50 D (converted)
From the text: Strain D contains mutation Y188L in HIV reverse transcriptase, […]

[2] = system: HIV strain B, mutation K103N in HIV reverse transcriptase; assay: cellular antiviral assay, strain B; format: cell-based; conditions: for EC50: Human immunodeficiency virus 1, read-out: pEC50 B (converted)
From the text: Strain B contains mutation K103N in HIV reverse transcriptase, […]

[3] = system: wild type HIV-LAI strain (IIIB); assay: cellular antiviral assay, strain IIIB; format: cell-based; conditions: for EC50: read-out: pEC50 IIIB (converted)
From the text: Strain IIIB is wild type HIV-LAI strain

[4] = system: HIV strain E, mutations L100I and K103N in HIV reverse transcriptase; assay: cellular antiviral assay, strain E; format: cell-based; conditions: for pEC50 E: strain E, L100I and K103N; for EC50: Human immunodeficiency virus 1, read-out: pEC50 E (converted)
From the text: Strain E contains mutations L100I and K103N in HIV reverse transcriptase, […]

[5] = system: HIV strain C, mutation L100I in HIV reverse transcriptase; assay: cellular antiviral assay, strain C; format: cell-based; conditions: for pEC50 C: strain C, L100I; for EC50: Human immunodeficiency virus 1, read-out: pEC50 C (converted)
From the text: Strain C contains mutation L100I in HIV reverse transcriptase, […]

[6] = cellular antiviral assay, strain G; format: cell-based, HIV; conditions: Human immunodeficiency virus 1, read-out: pEC50 G (converted)
[7] = Human immunodeficiency virus 1, IIIB

| SMILES | pEC50 D [1] | pEC50 B ([2]; strain B, K103N) | pEC50 IIIB ([3]; strain IIIB, wild type HIV-LAI) | pEC50 E [4] | pEC50 C [5] | EC50 [1] | EC50 [2] | EC50 [3, 7] | EC50 [4] | EC50 [5] | EC50 [6] | EC50 ([3]; Human immunodeficiency virus 1, strain IIIB, wild type HIV-LAI) |
| --- | --- | --- | --- | --- | --- | --- | --- | --- | --- | --- | --- | --- |
| Cc1cc(C=CC#N)cc(C)c1Nc1nc(Nc2ccc(C#N)cc2)ncc1-c1nc(-c2ccccc2)no1 (mixture of isomers) [Compound 13] | 7 | 7.7 | 7.8 | 7 | 7.8 |  |  |  |  |  |  |  |
| Cc1cc(/C=C/C#N)cc(C)c1Nc1nc(Nc2ccc(C#N)cc2)ncc1-n1cccc1 [Compound 1] |  |  |  |  |  | 6.31 nM | 0.794 nM | 1 nM | 3.98 nM | 1 nM | 1580 nM |  |
| Cc1cc(/C=C/C#N)cc(C)c1Nc1nc(Nc2ccc(C#N)cc2)ncc1-c1cccnc1 [Compound 2] |  |  |  |  |  | 3.98 nM | 0.631 nM | 0.631 nM | 12.6 nM | 2 nM | 7940 nM |  |
| Cc1cc(/C=C/C#N)cc(C)c1Nc1nc(Nc2ccc(C#N)cc2)ncc1-c1ccco1 [Compound 3] |  |  |  |  |  | 2.51 nM | 0.794 nM |  | 3.16 nM | 0.631 nM | 631 nM | 0.631 nM |
| N#C/C=C/c1cc(F)c(Nc2nc(Nc3ccc(C#N)cc3)ncc2-n2cccc2)c(Cl)c1 [Compound 4] |  |  |  |  |  | 12.6 nM | 1 nM | 1 nM | 3.16 nM | 0.794 nM | 2510 nM |  |
| Cc1cc(/C=C/C#N)cc(C)c1Nc1nc(Nc2ccc(C#N)cc2)ncc1-c1nc(-c2ccco2)no1 [Compound 15] | 6.2 |  | 7.6 | 4.6 | 6.7 |  |  |  |  |  |  |  |
| Cc1noc(-c2cnc(Nc3ccc(C#N)cc3)nc2Nc2c(C)cc(/C=C/C#N)cc2C)n1 [Compound 16] | 7.8 |  | 8.3 | 7.7 | 8.4 |  |  |  |  |  |  |  |
| Cc1cc(/C=C/C#N)cc(C)c1Nc1nc(Nc2ccc(C#N)cc2)ncc1-c1nc(-c2cccs2)no1 [Compound 17] | 5.7 |  | 7.0 | 5.0 | 6.0 |  |  |  |  |  |  |  |
| Cc1cc(/C=C/C#N)cc(C)c1Nc1nc(Nc2ccc(C#N)cc2)ncc1-c1ncccc1N [Compound 20] |  |  | 8.7 | 7.1 |  |  |  |  |  |  |  |  |
